Reference: US6734171B1, “Methods for encapsulating nucleic acids in lipid bilayers” (Inex Pharmaceuticals Corp., priority 1997, dated 2004)

How the values were obtained:
[1] = test system: Unseparated spleen cells; experiment: Cell proliferation assay (3H-thymidine) of spleen cells stimulated in vitro; type: cell-based, Balb/c mice; conditions: spleen cells of Diluent treated mice; label = in vitro stimulation
Method: Mice, 12 per group, were injected intravenously (i.v.) with TCS formulations as described below. In this study four injections were given at intervals of seven days over a period of five weeks (Table 4). Group A was injected with INEX324 expressing LacZ reporter gene on day 0, 7 and 14 (150 μl per mouse of INEX324-LacZ, 75 μg DNA). Two weeks after the last LacZ injection, mice were injected with INEX324-Luc (150 μl per injection, 80 μg DNA). To evaluate the immunogenicity of INEX324 lipid, Group B received three injections of INEX324 empty vesicles (150 μl per mouse) and one injection of INEX324-Luc two weeks later. Group C served as a base-line control, mice were given 150 μl of diluent at each time point. Mice from Group D received three diluent injections, followed by a single injection of INEX324-Luc, and served as a positive control for luciferase expression. Three mice from each group were sacrificed at 18 hours after each injection, or 24 hours prior to the following injection. Blood was collected and the serum samples were analyzed for the presence of antibodies specific for β-galactosidase using an ELISA assay. […] Splenocytes were monitored for expression, of differentiation (CD4, CD8, CD22, CD11b) and activation (CD86, MHC-II, Ly-6A/E, CD54 and CD25) markers. […]
Unseparated spleen cells were tested in vitro for their ability to proliferate upon re-stimulation with the empty INEX324 vesicles, INEX324-LacZ formulation, LacZ, transgene product (r-β-galactosidase), or with polyclonal activators for T (Concanavalin A, Con A) and […] (Lipopolysaccharide, LPS). […] An isolated cell suspension was separated from debris by removing the supernatant and the cell number was quantified using a Coulter counter (Coulter Instruments, Miami, Fla.). […] The levels of incorporated radioactivity were measured in a scintillation counter. ^3H-thymidine incorporation is expressed total ^3H-incorporation (DPMs), or as a mean percentage (±SD) of media control and plotted versus lipid concentration values.

[2] = test system: Splenocytes; experiment: Cytokine release (IL-2, IL-4 ELISA) of splenocytes stimulated in vitro; type: cell-based, Balb/c mice; conditions: spleen cells of Diluent treated mice; label = in vitro stimulation
Method: Splenocytes (1×10^6 cells/ml) were either nonstimulated or cultured in the presence of various concentrations of either empty INEX324 vesicles, or INEX324-LacZ formulation at different times after culture initiation (24 h and 48 h). The levels of cytokine in the cell culture supernatant (Interleukin-2 and Interleukin-4) were determined by an ELISA assasy (below).
Cytokine-specific ELISA assays were performed using the protocol and specific anti-interleukin antibodies provided by reagent mini-kit (Endogen, Woburn MA). Briefly, Immuno-module (F8-maxisorb) 96-well plates were coated overnight with anti-IL-2, or anti-IL-4 antibody. Plates were washed with PBS-Tween 20 (0.05%) and blocked with PBS-Tween 20-BSA (2%) for 1 hour at room temperature. Supernatant samples and standards (diluted in blocking buffer) were added and allowed to incubate overnight. Plates were washed and biotinylated anti-IL-2 or anti-IL-4 antibody was added. After 2 hours incubation, plates were washed and HRP-Extravidin, followed by TMB, was added to each well. Plates were read on a plate reader at OD450nm. The amount of released cytokine was determined by comparing the O.D. of test supernatants to a standard curve of serially diluted cytokine standards.

Substance	3H-incorporation [1]	Cytokine release IL-2 [2]	Cytokine release IL-4 [2]
Concanavalin A [ConA]	215542 DPMs	0.615 OD450	0.138 OD450
Lipopolysaccharide [LPS]	35676 DPMs		
r-β-gal: transgene product (r-β-galactosidase)	18336 DPMs	0.059 OD450	0.103 OD450
